Source: ChEMBL document CHEMBL6109104, “Synthesis and antibacterial evaluations of novel vancomycin analogues targeting bacteria membrane to combat Gram-negative infections” (Eur J Med Chem, 2025)

Legend:
Assay type in all cases: functional
Settings in all cases: time 16-18 hrs
[1] = test system: Acinetobacter baumannii; test: Antibacterial activity against Acinetobacter baumannii ATCC17978 incubated for 16 to 18 hrs by muller hinton broth based microplate reader analysis
[2] = test system: Acinetobacter baumannii; test: Antibacterial activity against Acinetobacter baumannii ATCC19606 incubated for 16 to 18 hrs by muller hinton broth based microplate reader analysis
[3] = test system: Escherichia coli; test: Antibacterial activity against Escherichia coli ATCC25922 incubated for 16 to 18 hrs by muller hinton broth based microplate reader analysis
[4] = test system: Staphylococcus aureus; test: Antibacterial activity against methicillin-resistant Staphylococcus aureus USA300 incubated for 16 to 18 hrs by muller hinton broth based microplate reader analysis
[5] = test system: Escherichia coli; test: Antibacterial activity against Escherichia coli ATCC35150 incubated for 16 to 18 hrs by muller hinton broth based microplate reader analysis
[6] = test system: Staphylococcus aureus; test: Antibacterial activity vancomycin-intermediate resistant Staphylococcus aureus incubated for 16 to 18 hrs by muller hinton broth based microplate reader analysis

| Structure (SMILES) | MIC [1] | MIC [2] | MIC [3] | MIC [4] | MIC [5] | MIC [6] |
| --- | --- | --- | --- | --- | --- | --- |
| CN[C@H](CC(C)C)C(=O)N[C@H]1C(=O)N[C@@H](CC(N)=O)C(=O)N[C@H]2C(=O)N[C@H]3C(=O)N[C@H](C(=O)N[C@H](C(=O)O)c4cc(O)cc(O)c4-c4cc3ccc4O)[C@H](O)c3ccc(c(Cl)c3)Oc3cc2cc(c3O[C@@H]2O[C@H](CO)[C@@H](O)[C@H](O)[C@H]2O[C@H]2C[C@](C)(NC(=O)CCCCCCCCC[n+]3ccc(C)cc3)[C@H](O)[C@H](C)O2)Oc2ccc(cc2Cl)[C@H]1O.[Br-] | > 128 µg/mL | > 128 µg/mL | > 128 µg/mL | 8 µg/mL | > 128 µg/mL | > 128 µg/mL |
| CCCCCCCCCCCCCCCC[N+]1(C)CCN(C(=O)[C@H]2NC(=O)[C@H]3NC(=O)[C@H](NC(=O)[C@@H]4NC(=O)[C@H](CC(N)=O)NC(=O)[C@H](NC(=O)[C@@H](CC(C)C)NC)[C@H](O)c5ccc(c(Cl)c5)Oc5cc4cc(c5O[C@@H]4O[C@H](CO)[C@@H](O)[C@H](O)[C@H]4O[C@H]4C[C@](C)(N)[C@H](O)[C@H](C)O4)Oc4ccc(cc4Cl)[C@H]3O)c3ccc(O)c(c3)-c3c(O)cc(O)cc32)CC1.[Br-] (stereo in doubt) | > 128 µg/mL | > 128 µg/mL | 64 µg/mL | 8 µg/mL | > 128 µg/mL | > 128 µg/mL |
| CCCCCCCCCCCC[N+]1(C)CCN(C(=O)c2ccc(CN[C@@]3(C)C[C@H](O[C@H]4[C@H](Oc5c6cc7cc5Oc5ccc(cc5Cl)[C@@H](O)[C@@H](NC(=O)[C@@H](CC(C)C)NC)C(=O)N[C@@H](CC(N)=O)C(=O)N[C@H]7C(=O)N[C@H]5C(=O)N[C@H](C(=O)N[C@H](C(=O)O)c7cc(O)cc(O)c7-c7cc5ccc7O)[C@H](O)c5ccc(c(Cl)c5)O6)O[C@H](CO)[C@@H](O)[C@@H]4O)O[C@@H](C)[C@H]3O)cc2)CC1.[Br-] | 32 µg/mL | 16 µg/mL | > 128 µg/mL | 2 µg/mL | > 128 µg/mL | 64 µg/mL |
| CCCCCCCCCCCCCC[N+]1(C)CCN(C(=O)c2ccc(CN[C@@]3(C)C[C@H](O[C@H]4[C@H](Oc5c6cc7cc5Oc5ccc(cc5Cl)[C@@H](O)[C@@H](NC(=O)[C@@H](CC(C)C)NC)C(=O)N[C@@H](CC(N)=O)C(=O)N[C@H]7C(=O)N[C@H]5C(=O)N[C@H](C(=O)N[C@H](C(=O)O)c7cc(O)cc(O)c7-c7cc5ccc7O)[C@H](O)c5ccc(c(Cl)c5)O6)O[C@H](CO)[C@@H](O)[C@@H]4O)O[C@@H](C)[C@H]3O)cc2)CC1.[Br-] | > 128 µg/mL | > 128 µg/mL | > 128 µg/mL | 2 µg/mL | > 128 µg/mL | 64 µg/mL |
| CN[C@H](CC(C)C)C(=O)N[C@H]1C(=O)N[C@@H](CC(N)=O)C(=O)N[C@H]2C(=O)N[C@H]3C(=O)N[C@H](C(=O)N[C@H](C(=O)O)c4cc(O)cc(O)c4-c4cc3ccc4O)[C@H](O)c3ccc(c(Cl)c3)Oc3cc2cc(c3O[C@@H]2O[C@H](CO)[C@@H](O)[C@H](O)[C@H]2O[C@H]2C[C@](C)(NC(=O)CCCCCCCCCCC[n+]3cccc(NC(=O)OC(C)(C)C)c3)[C@H](O)[C@H](C)O2)Oc2ccc(cc2Cl)[C@H]1O.[Br-] | > 128 µg/mL | > 128 µg/mL | > 128 µg/mL | 4 µg/mL | > 128 µg/mL | > 128 µg/mL |
| CCCCCCCCCC[N+]1(C)CCN(C(=O)[C@H]2NC(=O)[C@H]3NC(=O)[C@H](NC(=O)[C@@H]4NC(=O)[C@H](CC(N)=O)NC(=O)[C@H](NC(=O)[C@@H](CC(C)C)NC)[C@H](O)c5ccc(c(Cl)c5)Oc5cc4cc(c5O[C@@H]4O[C@H](CO)[C@@H](O)[C@H](O)[C@H]4O[C@H]4C[C@](C)(N)[C@H](O)[C@H](C)O4)Oc4ccc(cc4Cl)[C@H]3O)c3ccc(O)c(c3)-c3c(O)cc(O)cc32)CC1.[Br-] (stereo in doubt) | 32 µg/mL | 32 µg/mL | 16 µg/mL | 1 µg/mL | 16 µg/mL | 1 µg/mL |
| CCCCCCCCCCCCCC[N+]1(C)CCN(C(=O)[C@H]2NC(=O)[C@H]3NC(=O)[C@H](NC(=O)[C@@H]4NC(=O)[C@H](CC(N)=O)NC(=O)[C@H](NC(=O)[C@@H](CC(C)C)NC)[C@H](O)c5ccc(c(Cl)c5)Oc5cc4cc(c5O[C@@H]4O[C@H](CO)[C@@H](O)[C@H](O)[C@H]4O[C@H]4C[C@](C)(N)[C@H](O)[C@H](C)O4)Oc4ccc(cc4Cl)[C@H]3O)c3ccc(O)c(c3)-c3c(O)cc(O)cc32)CC1.[Br-] (stereo in doubt) | 32 µg/mL | 32 µg/mL | 32 µg/mL | 1 µg/mL | 32 µg/mL | 32 µg/mL |
| CCCCCCCCCCCCCCCCCC[N+]1(C)CCN(C(=O)[C@H]2NC(=O)[C@H]3NC(=O)[C@H](NC(=O)[C@@H]4NC(=O)[C@H](CC(N)=O)NC(=O)[C@H](NC(=O)[C@@H](CC(C)C)NC)[C@H](O)c5ccc(c(Cl)c5)Oc5cc4cc(c5O[C@@H]4O[C@H](CO)[C@@H](O)[C@H](O)[C@H]4O[C@H]4C[C@](C)(N)[C@H](O)[C@H](C)O4)Oc4ccc(cc4Cl)[C@H]3O)c3ccc(O)c(c3)-c3c(O)cc(O)cc32)CC1.[Br-] (stereo in doubt) | > 128 µg/mL | > 128 µg/mL | > 128 µg/mL | 1 µg/mL | > 128 µg/mL | 64 µg/mL |
| CN[C@H](CC(C)C)C(=O)N[C@H]1C(=O)N[C@@H](CC(N)=O)C(=O)N[C@H]2C(=O)N[C@H]3C(=O)N[C@H](C(=O)N[C@H](C(=O)O)c4cc(O)cc(O)c4-c4cc3ccc4O)[C@H](O)c3ccc(c(Cl)c3)Oc3cc2cc(c3O[C@@H]2O[C@H](CO)[C@@H](O)[C@H](O)[C@H]2O[C@H]2C[C@](C)(NC(=O)CCCCCCCCCCC[n+]3ccc(N)cc3)[C@H](O)[C@H](C)O2)Oc2ccc(cc2Cl)[C@H]1O.O=C(O)C(F)(F)F.[Br-] | > 128 µg/mL | > 128 µg/mL | > 128 µg/mL | 1 µg/mL | > 128 µg/mL | 32 µg/mL |
| CCCCCCCCCCCCCC[n+]1ccc(C(=O)NCCNC(=O)[C@H]2NC(=O)[C@H]3NC(=O)[C@H](NC(=O)[C@@H]4NC(=O)[C@H](CC(N)=O)NC(=O)[C@H](NC(=O)[C@@H](CC(C)C)NC)[C@H](O)c5ccc(c(Cl)c5)Oc5cc4cc(c5O[C@@H]4O[C@H](CO)[C@@H](O)[C@H](O)[C@H]4O[C@H]4C[C@](C)(N)[C@H](O)[C@H](C)O4)Oc4ccc(cc4Cl)[C@H]3O)c3ccc(O)c(c3)-c3c(O)cc(O)cc32)cc1.[Br-] (stereo in doubt) | > 128 µg/mL | > 128 µg/mL | > 128 µg/mL | 4 µg/mL | > 128 µg/mL | 64 µg/mL |
| CN[C@H](CC(C)C)C(=O)N[C@H]1C(=O)N[C@@H](CC(N)=O)C(=O)N[C@H]2C(=O)N[C@H]3C(=O)N[C@H](C(=O)N[C@H](C(=O)O)c4cc(O)cc(O)c4-c4cc3ccc4O)[C@H](O)c3ccc(c(Cl)c3)Oc3cc2cc(c3O[C@@H]2O[C@H](CO)[C@@H](O)[C@H](O)[C@H]2O[C@H]2C[C@](C)(NC(=O)CCCCCCCCCCC[n+]3cccc(Br)c3)[C@H](O)[C@H](C)O2)Oc2ccc(cc2Cl)[C@H]1O.[Br-] | > 128 µg/mL | > 128 µg/mL | > 128 µg/mL | 4 µg/mL | > 128 µg/mL | 32 µg/mL |
| CN[C@H](CC(C)C)C(=O)N[C@H]1C(=O)N[C@@H](CC(N)=O)C(=O)N[C@H]2C(=O)N[C@H]3C(=O)N[C@H](C(=O)N[C@H](C(=O)O)c4cc(O)cc(O)c4-c4cc3ccc4O)[C@H](O)c3ccc(c(Cl)c3)Oc3cc2cc(c3O[C@@H]2O[C@H](CO)[C@@H](O)[C@H](O)[C@H]2O[C@H]2C[C@](C)(NC(=O)CCCCCCC[n+]3ccc(C)cc3)[C@H](O)[C@H](C)O2)Oc2ccc(cc2Cl)[C@H]1O.[Br-] | > 128 µg/mL | > 128 µg/mL | > 128 µg/mL | 8 µg/mL | > 128 µg/mL | > 128 µg/mL |
| CN[C@H](CC(C)C)C(=O)N[C@H]1C(=O)N[C@@H](CC(N)=O)C(=O)N[C@H]2C(=O)N[C@H]3C(=O)N[C@H](C(=O)N[C@H](C(=O)O)c4cc(O)cc(O)c4-c4cc3ccc4O)[C@H](O)c3ccc(c(Cl)c3)Oc3cc2cc(c3O[C@@H]2O[C@H](CO)[C@@H](O)[C@H](O)[C@H]2O[C@H]2C[C@](C)(NC(=O)CCCCCCCCCCC[n+]3ccc(C)cc3)[C@H](O)[C@H](C)O2)Oc2ccc(cc2Cl)[C@H]1O.[Br-] | > 128 µg/mL | > 128 µg/mL | > 128 µg/mL | 4 µg/mL | > 128 µg/mL | > 128 µg/mL |
| CN[C@H](CC(C)C)C(=O)N[C@H]1C(=O)N[C@@H](CC(N)=O)C(=O)N[C@H]2C(=O)N[C@H]3C(=O)N[C@H](C(=O)N[C@H](C(=O)O)c4cc(O)cc(O)c4-c4cc3ccc4O)[C@H](O)c3ccc(c(Cl)c3)Oc3cc2cc(c3O[C@@H]2O[C@H](CO)[C@@H](O)[C@H](O)[C@H]2O[C@H]2C[C@](C)(NC(=O)CCCCCCCCCCC[n+]3ccccc3)[C@H](O)[C@H](C)O2)Oc2ccc(cc2Cl)[C@H]1O.[Br-] | > 128 µg/mL | > 128 µg/mL | > 128 µg/mL | 4 µg/mL | > 128 µg/mL | 64 µg/mL |
| CN[C@H](CC(C)C)C(=O)N[C@H]1C(=O)N[C@@H](CC(N)=O)C(=O)N[C@H]2C(=O)N[C@H]3C(=O)N[C@H](C(=O)N[C@H](C(=O)O)c4cc(O)cc(O)c4-c4cc3ccc4O)[C@H](O)c3ccc(c(Cl)c3)Oc3cc2cc(c3O[C@@H]2O[C@H](CO)[C@@H](O)[C@H](O)[C@H]2O[C@H]2C[C@](C)(NC(=O)CCCCCCCCCCC[n+]3cccc(F)c3)[C@H](O)[C@H](C)O2)Oc2ccc(cc2Cl)[C@H]1O.[Br-] | > 128 µg/mL | > 128 µg/mL | > 128 µg/mL | 4 µg/mL | > 128 µg/mL | 64 µg/mL |
| CCCCCCCCCC[n+]1ccc(C(=O)NCCNC(=O)[C@H]2NC(=O)[C@H]3NC(=O)[C@H](NC(=O)[C@@H]4NC(=O)[C@H](CC(N)=O)NC(=O)[C@H](NC(=O)[C@@H](CC(C)C)NC)[C@H](O)c5ccc(c(Cl)c5)Oc5cc4cc(c5O[C@@H]4O[C@H](CO)[C@@H](O)[C@H](O)[C@H]4O[C@H]4C[C@](C)(N)[C@H](O)[C@H](C)O4)Oc4ccc(cc4Cl)[C@H]3O)c3ccc(O)c(c3)-c3c(O)cc(O)cc32)cc1.[Br-] | 32 µg/mL | 16 µg/mL | > 128 µg/mL | 2 µg/mL | > 128 µg/mL | 64 µg/mL |
